Data on 24 compounds can be found in patent US8575201B2 (Boehringer Ingelheim International GmbH, priority 2010, dated 2013).

Molecules are shown by their SMILES.

Assay [1] relates to synthesis of LTB4 in human whole blood. Nature of the assay: Human whole blood LTB4 production inhibition assay. The class given is cell-based. The conditions noted are these: calcimycin stimulated, read-out: hWB LTB4 IC50. The procedure: Compounds are additionally tested in a human whole blood assay to determine their ability to inhibit the synthesis of LTB4 in a cellular system. Compounds are combined with heparinized human whole blood and incubated for 15 minutes at 37° C. Calcimycin (20 μM final, prepared in phosphate-buffered saline, pH 7.4) is then added and the mixture is incubated for another 30 minutes at 37° C. The samples are centrifuged for 5 min at low speed (1500×g) and the plasma layer is removed. Plasma LTB4 concentrations are then measured using an antibody-based homogenous time-resolved fluorescence method (CisBio, Bedford, Mass.).

Assay [2] has as its target recombinant human FLAP protein (Homo sapiens (Human), UniProt P20292). As to the kind of experiment: FLAP binding assay (Scintillation Proximity Assay, displacement of [125I]L-691,831). To be noted: read-out: FLAP SPA IC50. How it is done:
Assessment of Biological Properties 1. Binding Assay: Compounds are assessed for the ability to bind to FLAP in a binding assay that measures compound-specific displacement of an iodinated (^125I) FLAP inhibitor via a Scintillation Proximity Assay format (adapted from S. Charleson et al., Mol. Pharmacol., 1992, 41, 873-879). […] The cells are lysed with a Dounce homogenizer and the material is centrifuged at 10,000×g for 10 minutes. The supernatant is then collected and centrifuged at 100,000×g for 60 minutes. To prepare membrane protein for an assay, an aliquot of the 100,000×g pellet is resuspended in 1 ml of buffer A, Dounce homogenized, and finally subjected to polytron mixing (30 seconds). […] Mol. Pharmacol., 41, 873-879, 1992) and finally 50 μl of the bead/protein mixture. (final concentrations: beads, 200 μg/well; protein, 5 μg/well; […] The plates are shaken for 2 h before reading on a Microbeta plate reader.
(In general: In a scintillation proximity assay essentially only radioactivity close to the scintillant gives light.)

Sequence of recombinant human FLAP protein (P20292 whole entry): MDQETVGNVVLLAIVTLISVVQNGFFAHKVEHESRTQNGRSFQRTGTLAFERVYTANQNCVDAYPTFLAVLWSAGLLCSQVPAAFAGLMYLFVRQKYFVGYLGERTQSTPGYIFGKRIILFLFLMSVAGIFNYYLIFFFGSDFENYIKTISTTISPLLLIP

As for `Nc1ncc(-c2ccc(C3(c4noc(-c5ccc(N6CCN[C@@H](C(=O)O)C6)nc5)n4)CCC3)cn2)cn1` [Example 42, (2R)-4-[5-(3-{1-[6-(2-aminopyrimidin-5-yl)pyridin-3-yl]cyclobutyl}-1,2,4-oxadiazol-5-yl)pyridin-2-yl]piperazine-2-carboxylic acid], the IC50 (usually the concentration that inhibits the measured activity by half) in assay [1] is more than 5000 nM; in assay [2] it was 7.7 nM.
`Nc1ncc(-c2ccc(C3(c4noc(-c5ccc(N6CC[C@@H](O)C6)nc5)n4)CCC3)cn2)cn1` [Example 43, (3R)-1-[5-(3-{1-[6-(2-aminopyrimidin-5-yl)pyridin-3-yl]cyclobutyl}-1,2,4-oxadiazol-5-yl)pyridin-2-yl]pyrrolidin-3-ol]: the IC50 came to 170 nM in assay [1] and 1.2 nM in assay [2].
For `C[C@@H](O)CNc1ccc(-c2nc(C3(c4ccc(-c5cnc(N)nc5)nc4)CCC3)no2)cn1` [Example 44, (2R)-1-{[5-(3-{1-[6-(2-aminopyrimidin-5-yl)pyridin-3-yl]cyclobutyl}-1,2,4-oxadiazol-5-yl)pyridin-2-yl]amino}propan-2-ol], the IC50 is 100 nM in assay [1] and 2.7 nM in assay [2].
Turning to `Nc1ncc(-c2ccc(C3(c4noc(-c5ccc(N6CCC[C@@H]6CO)nc5)n4)CCC3)cn2)cn1` [Example 45, {(2R)-1-[5-(3-{1-[6-(2-aminopyrimidin-5-yl)pyridin-3-yl]cyclobutyl}-1,2,4-oxadiazol-5-yl)pyridin-2-yl]pyrrolidin-2-yl}methanol], the IC50 in assay [1] turned out to be 750 nM; in assay [2], 3.1 nM.
For the compound `C[C@H](O)CNc1ccc(-c2nc(C3(c4ccc(-c5cnc(N)nc5)nc4)CCC3)no2)cn1` [Example 46, (2S)-1-{[5-(3-{1-[6-(2-aminopyrimidin-5-yl)pyridin-3-yl]cyclobutyl}-1,2,4-oxadiazol-5-yl)pyridin-2-yl]amino}propan-2-ol], the half-maximal inhibitory concentration (IC50) in assay [1] stood at 110 nM; in assay [2] it was 2.4 nM.
As to `CCOC(=O)CCN1CCN(c2ccc(-c3nc(C4(c5ccc(-c6cnc(N)nc6)nc5)CCC4)no3)cn2)CC1` [Example 47, ethyl 3-{4-[5-(3-{1-[6-(2-aminopyrimidin-5-yl)pyridin-3-yl]cyclobutyl}-1,2,4-oxadiazol-5-yl)pyridin-2-yl]piperazin-1-yl}propanoate], the IC50 was 170 nM in assay [1] and 3.4 nM in assay [2].
For `Nc1ncc(-c2ccc(C3(c4noc(-c5ccc(N6CC[C@H](O)C6)nc5)n4)CCC3)cn2)cn1` [Example 48, (3S)-1-[5-(3-{1-[6-(2-aminopyrimidin-5-yl)pyridin-3-yl]cyclobutyl}-1,2,4-oxadiazol-5-yl)pyridin-2-yl]pyrrolidin-3-ol], in that order: 140 nM and 2.2 nM.
With `Nc1ncc(-c2ccc(C3(c4noc(-c5ccc(N6CCS(=O)(=O)CC6)nc5)n4)CCC3)cn2)cn1` [Example 49, 5-[5-(1-{5-[6-(1,1-dioxidothiomorpholin-4-yl)pyridin-3-yl]-1,2,4-oxadiazol-3-yl}cyclobutyl)pyridin-2-yl]pyrimidin-2-amine], the values for the IC50 in assay [1] and in assay [2] were 180 nM and 3.7 nM, respectively.
On to `CS(=O)(=O)N1CCN(c2ccc(-c3nc(C4(c5ccc(-c6cnc(N)nc6)nc5)CCC4)no3)cn2)CC1` [Example 50, 5-{5-[1-(5-{6-[4-(methylsulfonyl)piperazin-1-yl]pyridin-3-yl}-1,2,4-oxadiazol-3-yl)cyclobutyl]pyridin-2-yl}pyrimidin-2-amine], for which the IC50 turned out to be 150 nM in assay [1] and 2.7 nM in assay [2].
As for `CS(=O)(=O)CCNc1ccc(-c2nc(C3(c4ccc(-c5cnc(N)nc5)nc4)CCC3)no2)cn1` [Example 51, 5-(5-{1-[5-(6-{[2-(methylsulfonyl)ethyl]amino}pyridin-3-yl)-1,2,4-oxadiazol-3-yl]cyclobutyl}pyridin-2-yl)pyrimidin-2-amine], the results for the IC50 in assay [1] and in assay [2] were 150 nM and 4.8 nM, respectively.
For `CS(=O)(=O)C1CCN(c2ccc(-c3nc(C4(c5ccc(-c6cnc(N)nc6)nc5)CCC4)no3)cn2)C1` (stereo not drawn) [Example 52, 5-{5-[1-(5-{6-[3-(methylsulfonyl)pyrrolidin-1-yl]pyridin-3-yl}-1,2,4-oxadiazol-3-yl)cyclobutyl]pyridin-2-yl}pyrimidin-2-amine], in that order: 180 nM and 2.6 nM.
For `Nc1ncc(-c2ccc(C3(c4noc(-c5ccc(N6CCN(CCC(=O)O)CC6)nc5)n4)CCC3)cn2)cn1` [Example 53, 3-{4-[5-(3-{1-[6-(2-aminopyrimidin-5-yl)pyridin-3-yl]cyclobutyl}-1,2,4-oxadiazol-5-yl)pyridin-2-yl]piperazin-1-yl}propanoic acid], in that order: 2600 nM and 2.6 nM.
On the same counts, the results for `CC(C)(O)Cn1cc(-c2nc(C3(c4ccc(-c5cnc(N)nc5)nc4)CCC3)no2)cn1` [Example 54, 1-[4-(3-{1-[6-(2-aminopyrimidin-5-yl)pyridin-3-yl]cyclobutyl}-1,2,4-oxadiazol-5-yl)-1H-pyrazol-1-yl]-2-methylpropan-2-ol] are 120 nM and 28 nM.
Regarding `Nc1ncc(-c2ccc(C3(c4noc(-c5cnn(C6COC6)c5)n4)CCC3)cn2)cn1` [Example 55, 5-[5-(1-{5-[1-(oxetan-3-yl)-1H-pyrazol-4-yl]-1,2,4-oxadiazol-3-yl}-cyclobutyl)pyridin-2-yl]pyrimidin-2-amine], the IC50 in assay [1] was 52 nM; in assay [2], 13 nM.
For `CNC(=O)Cn1cc(-c2nc(C3(c4ccc(-c5cnc(N)nc5)nc4)CCC3)no2)cn1` [Example 58, 2-[4-(3-{1-[6-(2-aminopyrimidin-5-yl)pyridin-3-yl]cyclobutyl}-1,2,4-oxadiazol-5-yl)-1H-pyrazol-1-yl]-N-methylacetamide], in that order: 250 nM and 22 nM.
For `CN(C)C(=O)Cn1cc(-c2nc(C3(c4ccc(-c5cnc(N)nc5)nc4)CCC3)no2)cn1` [Example 59, 2-[4-(3-{1-[6-(2-amino-pyrimidin-5-yl)-pyridin-3-yl]-cyclobutyl}-1,2,4-oxadiazol-5-yl)-pyrazol-1-yl]-N,N-dimethyl-acetamide], the IC50 is 610 nM in assay [1] and 83 nM in assay [2].
Turning to `Nc1ncc(-c2ccc(C3(c4noc(-c5cnc(N6CCNCC6)cn5)n4)CCC3)cn2)cn1` [Example 60, 5-[5-(1-{5-[5-(piperazin-1-yl)pyrazin-2-yl]-1,2,4-oxadiazol-3-yl}cyclobutyl)pyridin-2-yl]pyrimidin-2-amine], the IC50 in assay [1] was 150 nM; in assay [2], 7.9 nM.
With `Nc1ncc(-c2ccc(C3(c4noc(-c5ccc(N6CCNCC6)cc5)n4)CCC3)cn2)cn1` [Example 62, 5-[5-(1-{5-[4-(piperazin-1-yl)phenyl]-1,2,4-oxadiazol-3-yl}cyclobutyl)pyridin-2-yl]pyrimidin-2-amine], the IC50 came out at 72 nM in assay [1] and 2.6 nM in assay [2].
Turning to `CCn1cc(-c2nc(C3(c4ccc(-c5cnc(N)nc5)nc4)CCC3)no2)cn1` [Example 63, 5-(5-{1-[5-(1-ethyl-1H-pyrazol-4-yl)-1,2,4-oxadiazol-3-yl]cyclobutyl}pyridin-2-yl)pyrimidin-2-amine], the IC50 in assay [1] stood at 190 nM; in assay [2] it was 8.8 nM.
`CC(C)n1cc(-c2nc(C3(c4ccc(-c5cnc(N)nc5)nc4)CCC3)no2)cn1` [Example 64, 5-[5-(1-{5-[1-(propan-2-yl)-1H-pyrazol-4-yl]-1,2,4-oxadiazol-3-yl}cyclobutyl)pyridin-2-yl]pyrimidin-2-amine]: the IC50 is 170 nM in assay [1] and 7.2 nM in assay [2].
On the same counts, the results for `CC(C)(C(=O)O)n1cc(-c2nc(C3(c4ccc(-c5cnc(N)nc5)nc4)CCC3)no2)cn1` [Example 65, 2-[4-(3-{1-[6-(2-aminopyrimidin-5-yl)pyridin-3-yl]cyclobutyl}-1,2,4-oxadiazol-5-yl)-1H-pyrazol-1-yl]-2-methylpropanoic acid] are more than 5000 nM and 590 nM.
For `Nc1ncc(-c2ccc(C3(c4noc(-c5cnn(C(F)F)c5)n4)CCC3)cn2)cn1` [Example 66, 5-[5-(1-{5-[1-(difluoromethyl)-1H-pyrazol-4-yl]-1,2,4-oxadiazol-3-yl}cyclobutyl)pyridin-2-yl]pyrimidin-2-amine], in that order: 200 nM and 7.4 nM.
For `Nc1ncc(-c2ccc(C3(c4noc(-c5cnn(CCF)c5)n4)CCC3)cn2)cn1` [Example 67, 5-[5-(1-{5-[1-(2-fluoroethyl)-1H-pyrazol-4-yl]-1,2,4-oxadiazol-3-yl}cyclobutyl)pyridin-2-yl]pyrimidin-2-amine], in that order: 69 nM and 9.5 nM.
For the compound `Nc1ncc(-c2ccc(C3(c4noc(-c5cnn(CC(F)F)c5)n4)CCC3)cn2)cn1` [Example 68, 5-[5-(1-{5-[1-(2,2-difluoroethyl)-1H-pyrazol-4-yl]-1,2,4-oxadiazol-3-yl}cyclobutyl)pyridin-2-yl]pyrimidin-2-amine], the IC50 in assay [1] is 160 nM; in assay [2], 6.1 nM.
